Activity calls are given as the source filed them. No cut-off for these calls is given here.
Legend:
Plasmodium berghei [1] = experiment: (§1) Antimalarial activity against Plasmodium berghei in Swiss mouse inoculated with parasite infected red blood cells assessed as reduction in parasitemia at 100 mg/kg/day, ip administered 4 hrs post infection on day 0, 1, 2 , 3 measured on day 7 post infection by giemsa staining based microscopic method; format: functional, organism-based
Mus musculus = experiment: Toxicity in Swiss mouse inoculated with parasite infected red blood cells assessed as mortality at 100 mg/kg/day, ip administered 4 hrs post infection on day 0, 1, 2 , 3 measured on day 4; format: organism-based; conditions: in vivo
Plasmodium berghei [2] = experiment: as §1, with “4” for “7”; format: functional, organism-based
Plasmodium berghei [3] = experiment: Antimalarial activity against Plasmodium berghei in Swiss mouse inoculated with parasite infected red blood cells assessed as mean survival time at 100 mg/kg/day, ip administered 4 hrs post infection on day 0, 1, 2 , 3; format: functional
[4] = Oral bioavailability in Sprague-Dawley rat at 10 mg/kg, administered via gavage; format: ADME, organism-based; conditions: in vivo
[5] = Apparent permeability across apical to basolateral side in human Caco2 cells at 50 uM after 90 mins by LC-MS/MS method; format: ADME, cell-based; conditions: Caco-2

Row | Structure (SMILES) | Activity (Mus musculus) | Activity (Plasmodium berghei [2]) | further results
1 | N=C(N)/N=C(\N)SCCOc1nc2ccccc2s1 |  |  | Activity (Plasmodium berghei [1]): Active
2 | N=C(N)NC(=N)SCc1cccc([N+](=O)[O-])c1 | Toxic | inactive | 
3 | N#Cc1ccc(CSC(=N)NC(=N)N)cc1 | Toxic |  | 
4 | N#Cc1ccc(CS/C(N)=N/C(=N)N)cc1 |  | inactive | 
5 | N=C(N)NC(=N)SCc1cccc(C(F)(F)F)c1 | Toxic | inactive | 
6 | N=C(N)/N=C(\N)SCCCOc1ccc(Cl)c(Cl)c1 |  |  | MST (Plasmodium berghei [3]): 24 days
7 | N=C(N)/N=C(\N)SCc1ccc(OCc2cccc(Br)c2)cc1 | Toxic | inactive | 
8 | N=C(N)/N=C(\N)SCCCOc1ccc(I)cc1 |  |  | MST (Plasmodium berghei [3]): 26 days
9 | N=C(N=C(N)N)SCc1cccc(I)c1 | Toxic | inactive | 
10 | Cc1ccc(CSC(=N)N=C(N)N)cc1 | Toxic | inactive | 
11 | N=C(N)/N=C(\N)SCc1ccc(F)cc1 | Toxic | inactive | 
12 | N=C(N)/N=C(\N)SCc1ccccc1C(F)(F)F | Toxic | inactive | 
13 | N=C(N)/N=C(\N)SCCOc1cccc(Br)c1 |  |  | MST (Plasmodium berghei [3]): 25 days
14 | N=C(N)/N=C(\N)SCc1cccc(CS/C(N)=N/C(=N)N)c1 |  |  | MST (Plasmodium berghei [3]): 20 days
15 | N=C(N)/N=C(\N)SCc1cccc(Cl)c1 | Toxic | inactive | 
16 | N=C(N)/N=C(\N)SCc1ccccc1[N+](=O)[O-] | Toxic | inactive | 
17 | CC1(C)N=C(N)N=C(N)N1OCCCOc1cc(Cl)c(Cl)cc1Cl |  |  | bioavailability [4]: < 1%; Papp A→B at 1.5 h, 50 µM [5]: < 0.12 ×10⁻⁶ cm/s
18 | N=C(N)/N=C(\N)SCCCOc1c(Cl)cc(Cl)cc1Cl |  |  | MST (Plasmodium berghei [3]): 24 days
